Structures can show the parent of a compound that is named as a salt.

This experiment deals with T1, human GPR120 (Homo sapiens, UniProt Q5NUL3).
T1 construct: expressed in transfected cells; host or cells: CHO-K1
T1 sequence (Q5NUL3 1-361): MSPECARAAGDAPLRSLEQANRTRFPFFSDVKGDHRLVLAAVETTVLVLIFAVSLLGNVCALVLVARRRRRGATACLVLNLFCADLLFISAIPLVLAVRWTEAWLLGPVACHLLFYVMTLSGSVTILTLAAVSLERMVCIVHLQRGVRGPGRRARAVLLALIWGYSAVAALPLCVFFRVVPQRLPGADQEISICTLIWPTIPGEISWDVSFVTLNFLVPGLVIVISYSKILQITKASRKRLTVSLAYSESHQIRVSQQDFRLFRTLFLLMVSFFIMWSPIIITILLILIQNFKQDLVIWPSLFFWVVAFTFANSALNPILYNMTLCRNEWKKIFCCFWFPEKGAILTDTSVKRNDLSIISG
Briefly: Human GPR120 IP1 assay (inositol phosphate turnover). It is filed as cell-based. The settings on record: IP1 accumulation in CHO-K1 cells stably expressing the short form of human GPR120. An excerpt: The binding of small molecule agonists to the G-protein-coupled receptor GPR120 activates phospholipase C, and leads to the generation of inositol 1,4,5-trisphosphate (InsP3 or IP3). IP3 is subsequently de-phosphorylated to IP1, which accumulates in cells and is stable in the presence of lithium chloride.
In the present method, agonist-induced activation of the human and rat GPR120 receptor was monitored by measuring the accumulation of IP1 in CHO-K1 cells that were stably expressing the short form of human GPR120 (Accession #NM_001195755) or HEK293 cells stably expressing rat GPR120 (Accession #NM_001047088). Following agonist addition, GPR120 activation and subsequent accumulation of IP1 was measured using a homogeneous Time Resolved Fluorescence-based ELISA commercially available from CisBio (IP-one ELISA Kit). The IP-One ELISA was a competitive immunoassay which uses IP1 labeled with […] and a terbium cryptate-labeled anti-IP1 monoclonal antibody. […] The signal loss was then back calculated to IP1 concentration using an IP1 standard curve. Determination of IP1 concentration was a direct measure of GPR120 activation and was used to determine compound potency (EC50).
Human GPR120 stable cell-lines were generated in CHO cells. The expression plasmids were transfected using lipofectamine (Life Technologies) following manufacturer's instructions. Stable cell-lines were generated following drug selection and single cell cloning. Rat GPR120 stable cell-lines were generated in HEK cells using the Jump-In™ cell engineering platform (Life Technologies) following manufacturer's instructions. Stable cell-lines were generated following drug selection and single cell cloning.
The assay was performed in 384-well format. CHO cells stably expressing human GPR120 were plated at 20,000 cells per well in growth medium (DMEM/F12, 10% fetal calf serum). HEK293 cells stably expressing rat GPR120 were plated at […] per well in growth medium (DMEM, 10% fetal calf serum). Cell plates were then incubated 16 hours at 37 degrees in a 5% CO2 incubator. Measurement of Inositol Phosphate Turnover (IP1) was performed using the CisBio IP-One kit (Part number 62IPAPEB). After the 16 hour incubation, the growth media was removed by centrifugation using the BlueWasher (AusWasher GUI Ver. v1.0.1.8) Protocol #21-“Light Dry” and 10 μl of stimulation buffer (prepared as described in the kit) was added to each well. In a separate plate, compounds were diluted in DMSO (200-fold over the final concentration in the assay well) and 50 nl was acoustically transferred to the appropriate well in the assay cell plate. The plates were then incubated for 60 minutes at 37 degrees in a 5% CO2 incubator. 10 μl of detection buffer (also prepared as described in the IP-One kit) was added to each well and the plates were incubated at room temperature for 60 minutes in the dark. The plates were then read in a Perkin ElmerEnVision or equivalent reader able to measure FRET. Fluorescent ratio of emission at 665 and 620 nm was then converted to the IP1 concentration by back calculating from an IP1 standard curve prepared at the time of the assay. The data was normalized to % activity using a reference compound, and the EC50 values were determined using a standard 4-parameter fit.
As usually defined, the EC50 is the concentration giving half of the maximal effect. A low value points to an effect from little substance. `CCOc1cc([C@]2(F)C[C@@H](Oc3ccc(-c4cc(O)no4)cn3)C2)ccn1` [Example 86, sodium 5-(6-{[cis-3-(2-ethoxypyridin-4-yl)-3-fluoro-cyclobutyl]oxy}pyridin-3-yl)isoxazol-3-olate] yielded an EC50 of 26 nM.

Turning to `Oc1cc(-c2cnc(O[C@H]3C[C@@H](c4ccnc(OC5CC5)c4)C3)cn2)on1` [Example 34, 5-[5-({cis-3-[2-(cyclopropyloxy)pyridin-4-yl]cyclobutyl}oxy)pyrazin-2-yl]isoxazol-3-ol], the EC50 was 25 nM.

In turn, `CC(C)Oc1cc([C@]2(F)C[C@@H](Oc3cnc(-c4cc(O)no4)cn3)C2)ccn1` [Example 100, sodium 5-[5-({cis-3-fluoro-3-[2-(propan-2-yloxy)pyridin-4-yl]cyclobutyl}oxy)pyrazin-2-yl]isoxazol-3-olate] gave an EC50 of 153 nM.

Take `Oc1cc(-c2cnc(O[C@H]3C[C@@H](c4cccc(-c5cnco5)c4)C3)cn2)on1` [Example 19, ammonium 5-[5-({cis-3-[3-(1,3-oxazol-5-yl)phenyl]-cyclobutyl}oxy)pyrazin-2-yl]isoxazol-3-olate]: the EC50 was 75 nM.

As for `Oc1cc(-c2cnc(O[C@H]3C[C@@H](c4ccc(C(F)(F)F)cn4)C3)cn2)on1` [Example 25, 5-[5-({cis-3-[5-(trifluoromethyl)pyridin-2-yl]cyclobutyl}oxy)pyrazin-2-yl]isoxazol-3-ol], the EC50 is 46 nM.

Turning to `Oc1cc(-c2cnc(O[C@H]3C[C@@H](c4ccc(F)cc4)C3)cn2)on1` [Example 10, sodium 5-(5-{[cis-3-(4-fluorophenyl)cyclobutyl]oxy}pyrazin-2-yl)isoxazol-3-olate], the EC50 was 34 nM.

`CCOc1cc([C@H]2C[C@H](Oc3cnc(-c4cc(O)no4)cn3)C2)ccn1` [Example 27, sodium 5-(5-{[trans-3-(2-ethoxypyridin-4-yl)cyclobutyl]oxy}pyrazin-2-yl)isoxazol-3-olate] returned an EC50 of 177 nM.

In turn, `Oc1cc(-c2ccc(O[C@H]3C[C@@H](OCc4ccc(F)c(F)c4)C3)nc2)on1` [Example 62, 2-({cis-3-[(3,4-difluorobenzyl)oxy]cyclobutyl}oxy)-5-(3-hydroxy-isoxazol-5-yl)pyridinium trifluoroacetate] came in with a concentration for a half-maximal effect (EC50) of 40 nM.

`Oc1cc(-c2ccc(OC3CCC(c4cccc(OC(F)(F)F)c4)C3)nc2)on1` (single isomer, unassigned) [Example 118]: a half-maximal effect (EC50) was put at 34 nM.

For the compound `Oc1cc(-c2cnc(O[C@H]3C[C@@H](Oc4ccc(F)c(Cl)c4)C3)cn2)on1` [Example 63, ammonium 5-(5-{[cis-3-(3-chloro-4-fluorophenoxy)cyclobutyl]-oxy}pyrazin-2-yl)isoxazol-3-olate], the response was half-maximal at 53 nM (EC50).

Regarding `Oc1cc(-c2cnc(O[C@H]3C[C@@H](c4nc(C(F)(F)F)cs4)C3)cn2)on1` [Example 5, 5-[5-({cis-3-[4-(trifluoromethyl)-1,3-thiazol-2-yl]cyclobutyl}oxy)pyrazin-2-yl]isoxazol-3-ol], it took 82 nM to reach a half-maximal effect (EC50).

Take `Oc1cc(-c2cnc(O[C@H]3C[C@@](F)(c4nc5ccccc5s4)C3)cn2)on1` [Example 105, ammonium 5-(5-{[trans-3-(1,3-benzothiazol-2-yl)-3-fluorocyclobutyl]oxy}pyrazin-2-yl)isoxazol-3-olate]: the EC50 came out at 237 nM.

In the case of `Oc1cc(-c2cnc(O[C@H]3C[C@@H](c4ccc(C(F)F)cc4)C3)cn2)on1` [Example 59, 5-[5-({cis-3-[4-(difluoromethyl)phenyl]cyclobutyl}oxy)pyrazin-2-yl]isoxazol-3-ol], a half-maximal effect (EC50) was put at 8 nM.

In turn, `Oc1cc(-c2ccc(OCC3CC(Oc4ccccc4)C3)nc2)on1` (centres unmarked) [Example 64, ammonium 5-{6-[(3-phenoxycyclobutyl)methoxy]pyridin-3-yl}isoxazol-3-olate] yielded an EC50 of 1990 nM.

The compound `Oc1cc(-c2cnc(O[C@H]3C[C@@H](c4c(F)cc(OC(F)F)cc4F)C3)cn2)on1` [Example 50, ammonium 5-[5-({cis-3-[4-(difluoromethoxy)-2,6-difluorophenyl]cyclobutyl}oxy)pyrazin-2-yl]isoxazol-3-olate] displayed an EC50 of 23 nM.

Compound `Oc1cc(-c2ccc(OC3CC(c4ccc(F)cc4)C3)nc2)on1` (centres unmarked) [Example 35, 5-(6-{[3-(4-fluorophenyl)cyclobutyl]oxy}pyridin-3-yl)isoxazol-3-ol trifluoroacetate] returned an EC50 of 10 nM.

Turning to `CC(C)Oc1cc([C@]2(F)C[C@@H](Oc3ccc(-c4cc(O)no4)cn3)C2)ccn1` [Example 99, sodium 5-[6-({cis-3-fluoro-3-[2-(propan-2-yloxy)pyridin-4-yl]cyclobutyl}oxy)pyridin-3-yl]isoxazol-3-olate], a half-maximal effect (EC50) was put at 17 nM.

The compound `Oc1cc(-c2ccc(OC3CC(OCc4ccc(F)cc4F)C3)nc2)on1` (mixture of isomers) [Example 72, 5-[6-({cis-3-[(2,4-difluorobenzyl)oxy]cyclobutyl}oxy)pyridin-3-yl]isoxazol-3-ol (mixture of isomers predominantly cis)] yielded an EC50 of 29 nM.

In the case of `Oc1cc(-c2cnc(O[C@H]3C[C@@H](c4ccc(-c5ccc(C(F)(F)F)nc5)cc4)C3)cn2)on1` [Example 18, 5-{5-[(cis-3-{4-[6-(trifluoromethyl)pyridin-3-yl]phenyl}cyclobutyl)oxy]pyrazin-2-yl}isoxazol-3-ol], the EC50 came to 134 nM.

`Oc1cc(-c2cnc(O[C@H]3C[C@@H](c4ccc(Br)cc4)C3)cn2)on1` [Example 7, ammonium 5-(5-{[cis-3-(4-bromophenyl)cyclobutyl]oxy}pyrazin-2-yl)isoxazol-3-olate] showed an EC50 of 11 nM.

On to `Oc1cc(-c2cnc(O[C@H]3C[C@@H](c4cc(OC5CC5)ccc4F)C3)cn2)on1` [Example 39, 5-[5-({cis-3-[5-(cyclopropyloxy)-2-fluorophenyl]cyclobutyl}oxy)pyrazin-2-yl]isoxazol-3-ol], for which the EC50 is 48 nM.

Take `Oc1cc(-c2cnc(O[C@H]3C[C@@H](Oc4ccc(F)c(C(F)(F)F)c4)C3)cn2)on1` [Example 70, 5-[5-({cis-3-[4-fluoro-3-(trifluoromethyl)phenoxy]cyclobutyl}oxy)pyrazin-2-yl]isoxazol-3-ol]: the response was half-maximal at 24 nM (EC50).

`CCc1ccc([C@H]2C[C@@H](Oc3ccc(-c4cc(O)no4)cn3)C2)cc1` [Example 14, 5-(6-{[cis-3-(4-ethylphenyl)-cyclobutyl]oxy}pyridin-3-yl)isoxazol-3-ol] came in with an EC50 of 19 nM.

In the case of `Oc1cc(-c2ccc(O[C@H]3C[C@H](c4ncc(C(F)(F)F)cc4F)C3)nc2)on1` [Example 8, sodium 5-[6-({trans-3-[3-fluoro-5-(trifluoromethyl)pyridin-2-yl]-cyclobutyl}oxy)pyridin-3-yl]isoxazol-3-olate], it took 303 nM to reach a half-maximal effect (EC50).

For `Oc1cc(-c2cnc(OC3CC(c4ccc5c(c4)OC(F)(F)O5)C3)nc2)on1` (centres unmarked) [Example 113, sodium 5-(2-{[3-(2,2-difluoro-1,3-benzodioxol-5-yl)cyclobutyl]oxy}pyrimidin-5-yl)isoxazol-3-olate], the EC50 was 41 nM.

The compound `Oc1cc(-c2ccc(O[C@H]3C[C@@](F)(c4ccc(C(F)(F)F)cn4)C3)nc2)on1` [Example 97, 2-(trans-1-fluoro-3-{[5-(3-hydroxyisoxazol-5-yl)pyridin-2-yl]oxy}cyclobutyl)-5-(trifluoromethyl)pyridinium trifluoroacetate] registered an EC50 of 22 nM.

These data come from patent US10864211B2, “Hydroxy isoxazole compounds useful as GPR120 agonists” (Merck Sharp & Dohme Corp., priority 2016, dated 2020).
